Patent US20090118135A1, “METHODS AND COMPOUNDS FOR REGULATING APOPTOSIS” (The Burnham Institute, priority 2007, published 2009)
pEC50, pIC50: −log10 of the molar value. Several values for one entry are separate records, joined by “and”; a condition that tells them apart may be missing. Identical values can stand only once. Entries after “also recorded” stand apart in the source; their conditions may differ. Like-named read-outs stand apart in the source and are kept apart here. Where a SMILES comes first, the peptide text is derived from it. [ ]: non-standard residue; d: D form. Ahx = NCCCCCC(=O)O

Legend:
GST-Bcl-2 = GST-Bcl-2 (Homo sapiens, UniProt P10415); assay: Bcl-2/FITC-TR3 fluorescence polarization competition assay (PBS + Tween-20); conditions: for displacement of FITC-TR3-r8 from Bcl-2: result in words; for Bcl-2 H Coefficient: Hill coefficient of Bcl-2 dose-response curve
Experimental: For the Chembridge screen, IC50s for each compound with respect to the Bcl-B/FITC-TR3 (In Hepes/β-glycerophophate/tween-20) fluorescence polarization and the Bcl-2/FITC-TR3 (In PBS+tween-20) fluorescence polarization assays were identified.
Fluorescence polarization was then measured using an Analyst HT Multi-Mode Plate Reader (LJL Biosystems, Sunnyvale, Calif.).

GST-Bcl-B [1] = biological target: T1, GST-Bcl-B (Homo sapiens, UniProt Q9HD36); assay: biochemical
T1 sequence (Q9HD36 1-182 limits assumed): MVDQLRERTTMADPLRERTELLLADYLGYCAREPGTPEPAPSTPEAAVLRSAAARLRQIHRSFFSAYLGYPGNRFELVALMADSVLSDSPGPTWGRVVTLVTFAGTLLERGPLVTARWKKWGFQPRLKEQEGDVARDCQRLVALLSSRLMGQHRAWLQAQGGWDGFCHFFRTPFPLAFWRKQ

GST-Bcl-B [2] = biological target: T1, GST-Bcl-B; assay: Bcl-B/FITC-TR3-r8 fluorescence polarization competition (displacement) assay, HTS and dose-response; conditions: for Bcl-B H Coefficient: Hill coefficient of Bcl-B dose-response curve; for displacement of FITC-TR3-r8 from GST-Bcl-B: result in words
[3] = tested on: HeLa Tet-On-Bcl-B (HTO2) cells; assay: Cell viability (ATPlite) in HeLa Tet-On-Bcl-B cells with or without doxycycline; assay type: cell-based; conditions: 24 h, read-out: concentration required to reduce HeLa Tet-On-Bcl-B cell viability by 50%
Experimental: FIG. 24A is a photograph of a blot wherein HeLa Tet-On (HTO1) and HeLa Tet-On-Bcl-B (HTO2) cells were treated with or without doxycycline (dox) for 24 h to induce their tetracycline-responsive promoters. Protein lysates were collected, and immunoblotting was used to analyze Bcl-B and Hsc70 (for loading control) expression. In FIG. 24B the cells were treated with or without doxycycline for 24 h, and then with staurosporine at the indicated concentrations for 24 h. Cell viability was measured using ATPlite. In FIG. 24C HeLa Tet-On-Bcl-B (HTO2) cells were treated with or without doxacycline as above. Compounds were then added at the indicated concentrations, and cell viability was measured 24 h later using ATPlite. The data shown represent mean±standard deviation (n=3).
HeLa Tet-On-Bcl-B cells were generated by stably transfecting the HeLa Tet-On cell line (Clontech, Mountain View, Calif.) with a pTRE2hyg vector (Clontech) containing the Bcl-B gene, using lipofectAMINE PLUS (Invitrogen, Carlsbad, Calif.). Briefly, cells were seeded overnight and transfected at 50% confluency for 3 h. After 24 h, the cells were re-seeded at <10% confluence and cultured in media (DMEM with 10% Tet System Approved FBS (Clontech)) containing G418 (100 μg/mL) and hygromycin B (300 μg/mL) for pTet-On and pTRE2hyg/Bcl-B plasmid maintenance, respectively. Positive foci resistant to both antibiotics were expanded. Colonies were then cultured in the presence or absence of doxycycline (Clontech, 1 μg/mL) for 16 h, and induced Bcl-B expression was confirmed by Western blot analysis. A previously developed polyclonal Bcl-B antibody^17 and an Hsc70 antibody (for protein concentration comparison; Santa Cruz Biotechnology, Santa Cruz, Calif.) were used.
Cells were seeded in 96-well plates at 5,000 cells/well in 100 μL of growth medium and allowed to incubate for 24 h. Afterwards, cells were incubated in the presence or absence of doxycycline (1 μg/mL) for another 24 h (to induce Bcl-B expression). Compounds were then added, as indicated, in a volume of 5 μL. The next day, cell viability was measured using the ATPlite Luminescence ATP Detection System (PerkinElmer, Waltham, Mass.) according to the manufacturer's specifications.

GST-Bcl-2, sequence (P10415 1-218 limits assumed): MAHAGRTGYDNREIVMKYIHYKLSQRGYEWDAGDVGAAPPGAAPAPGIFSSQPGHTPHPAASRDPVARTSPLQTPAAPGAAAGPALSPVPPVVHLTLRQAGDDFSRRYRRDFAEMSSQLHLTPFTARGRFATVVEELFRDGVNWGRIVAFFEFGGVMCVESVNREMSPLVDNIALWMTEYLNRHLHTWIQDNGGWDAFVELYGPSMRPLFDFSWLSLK

SMILES | pIC50 (GST-Bcl-B [1]) | Bcl-B H Coefficient (GST-Bcl-B [2]) | other results
CN(C)CC[C@H](CSc1ccccc1)Nc1ccc(S(=O)(=O)NC(=O)c2ccc(N3CCN(Cc4ccccc4-c4ccc(Cl)cc4)CC3)cc2)cc1[N+](=O)[O-] [ABT-737, reference compound] | – | – | displacement of FITC-TR3-r8 from Bcl-2 (GST-Bcl-2): failed to block FITC-TR3-9-r8 peptide binding to Bcl-2; also recorded: did not effectively displace FITC-TR3-r8 from Bcl-2
O=C(O)c1cccc2c1NC(c1ccc([N+](=O)[O-])cc1)C1CC=CC21 (centres unmarked) [Compound 5585430] | 5.27 | 1.735 | –
O=C1C(=Cc2cn(Cc3ccc(Cl)cc3)c3ccccc23)C(=O)c2ccccc21 [Compound 5603089] | 4.84 | 1.917 | –
COC(=O)C1=C(C)N(C)C(=O)NC1c1cc2c(cc1[N+](=O)[O-])OCO2 (centres unmarked) [Compound 5607960] | 4.76 | 1.821 | –
Oc1cccc(/C=N/C2=C(c3ccco3)N=C3C=CC=CC32)c1 (centres unmarked) [Compound 5612880] | 5.04 | 0.5836 | –
OC1=c2ccccc2=C(O)C12N=Nc1nnc(O)n1N2 [Compound 5627952] | 4.60 and 4.62 | 0.9192 | Bcl-2 H Coefficient (GST-Bcl-2): 1.575
O=C(COc1ccc(Cl)cc1Cl)Nc1nnc(-c2ccco2)[nH]1 [Compound 5632817] | 4.75 | 0.9962 | Bcl-2 H Coefficient (GST-Bcl-2): 1.078
CCOc1ccc(/C=C(/NC(=O)c2ccc(C)cc2)C(=O)NCCO)cc1 [Compound 5650022] | 4.88 | 1.428 | –
O=C(O)C1Nc2ccc3ccccc3c2C2C=CCC12 (centres unmarked) [Compound 5657743] | 5.15 | 3.005 | –
Cc1c(Cl)ccc2c1NC(C(=O)O)C1CC=CC21 (centres unmarked) [Compound 5659221] | 5.28 | 0.6773 | –
COc1cc(C2Nc3ccc4ccccc4c3C3=C2C(=O)CC(C)(C)C3)c(Br)cc1O (centres unmarked) [Compound 5660965] | 4.88 | 1.507 | –
Oc1ccc(Nc2nc(-c3ccccn3)cs2)cc1 [Compound 5662807] | 5.43 | 1.182 | Bcl-2 H Coefficient (GST-Bcl-2): 1.241
O=C(O)C1Nc2c(cccc2[N+](=O)[O-])C2C=CCC12 (centres unmarked) [Compound 5665283] | 5.92 | 1.829 | –
CCSc1nc(NN)c2c3c(sc2n1)CN(C)CC3 [Compound 5683054] | 5.13 | 1.332 | –
Cn1c(=O)cc2c3c(c(Nc4ccc(C=O)cc4)ccc31)C(=O)c1ccccc1-2 [Compound 5719776] | 5.09 | 2.489 | –
Cc1cc(C)nc(NC(=N)Nc2ccc(N)cc2)n1 [Compound 5805360] | 5.27 | 1.878 | –
O=C1NN(c2ccc(F)c(Cl)c2)C(=O)/C1=C\c1ccco1 [Compound 5837788] | 4.48 | 1.772 | –

SMILES | pIC50 (GST-Bcl-B [1]) | Bcl-B H Coefficient (GST-Bcl-B [2]) | other results
O=C(O)C1C2CC=CC2c2cc(Oc3ccccc3)cc3c2N1CC1CC=CC31 (centres unmarked) [Compound 5840196] | 5.38 | 2.774 | –
O=C(O)c1ccc([N+](=O)[O-])c2c1NC(c1ccccc1)C1CC=CC21 (centres unmarked) [Compound 5853021] | 5.41 | 2.481 | –
O=C(O)c1cccc(-c2ccc(/C=N/Nc3ccc([N+](=O)[O-])cn3)o2)c1 [Compound 5908920] | 5.02 | 0.6738 | –
O=C(O)C1Nc2c(C(=O)N3CCCC3)cccc2C2C=CCC12 (centres unmarked) [Compound 5947449] | 5.31 | 1.761 | –
Cc1ccc(C)n1-c1cc(C(=O)O)cc(C(=O)O)c1 [Compound 5950689] | 6.27 | 1.032 | Bcl-2 H Coefficient (GST-Bcl-2): 0.6186
COc1cc(N)ccc1-n1c(C)ccc1C [Compound 5953790] | 4.48 | 2.719 | –
Cc1ccc(C)n1-c1ccc(C(=O)O)c(Cl)c1 [Compound 5956338] | 5.00 | 0.9562 | Bcl-2 H Coefficient (GST-Bcl-2): 1.653
Cc1ccc(C)n1-c1ccccc1C(=O)O [Compound 5959185] | 6.21 | 2.868 | –
Cc1ccc(C)n1-c1ccc(OCC(=O)O)cc1 [Compound 5988031] | 5.06 | 0.6411 | –
CC(=O)c1cc(C#N)c(SCC(=O)c2ccc(O)c(O)c2)nc1C [Compound 6033363] | 4.96 | 2.08 | –
Cc1cc(I)c2c(c1)C1C=CCC1C(C(=O)O)N2 (centres unmarked) [Compound 6048134] | 4.68 | 1.406 | –
O=C(O)c1cccc2c1NC(c1cccc(Cl)c1Cl)C1CC=CC21 (centres unmarked) [Compound 6048905] | 5.59 and 5.57 | 2.809 | –
Nc1n[nH]c2ncc3cc4ccccc4nc3c12 [Compound 6051011] | 5.43 and 5.54 | 2.36 | –
CN1CCN(CN2C(=O)/C(=N\NC(=O)CSc3nc4ccccc4s3)c3ccccc32)CC1 [Compound 6062681] | 4.89 | 2.531 | –
Cc1ccc(-c2cc(C(=O)O)c3cc(Br)ccc3n2)o1 [Compound 6131498] | 4.78 | 1.896 | –
O=C(O[C@@H]1Cc2c(O)cc(O)cc2O[C@@H]1c1cc(O)c(O)c(O)c1)c1cc(O)c(O)c(O)c1 [EGCG, epigallecatechin] | – | – | pIC50 ([3]; in the absence of Bcl-B (without doxycycline)): 4.10; pIC50 ([3]; in the presence of Bcl-B (with doxycycline)): ~4.03; displacement of FITC-TR3-r8 from GST-Bcl-B (GST-Bcl-B [2]): none of these reagents displaced FITC-TR3-r8
CC(=O)N[C@@H](Cc1ccccc1)C(=O)N[C@@H](CO)C(=O)N[C@@H](CCCNC(=N)N)C(=O)N[C@@H](CO)C(=O)N[C@@H](CC(C)C)C(=O)N[C@@H](Cc1c[nH]cn1)C(=O)N[C@@H](CO)C(=O)N[C@@H](CC(C)C)C(=O)N[C@@H](CC(C)C)C(=O)NCC(=O)NCCCCCC(=O)N[C@H](CCCNC(=N)N)C(=O)N[C@H](CCCNC(=N)N)C(=O)N[C@H](CCCNC(=N)N)C(=O)N[C@H](CCCNC(=N)N)C(=O)N[C@H](CCCNC(=N)N)C(=O)N[C@H](CCCNC(=N)N)C(=O)N[C@H](CCCNC(=N)N)C(=O)N[C@H](CCCNC(=N)N)C(N)=O [TR3-r8, reference compound] (Ac-FSRSLHSLLG[Ahx][dR][dR][dR][dR][dR][dR][dR][dR]-NH2) | – | – | displacement of FITC-TR3-r8 from Bcl-2 (GST-Bcl-2): effectively competed for binding; pEC50 (GST-Bcl-B [2]): 7.08; displacement of FITC-TR3-r8 from GST-Bcl-B (GST-Bcl-B [2]): displaced FITC-TR3-r8 as expected
